Assay results taken from ChEMBL document CHEMBL2406964, “Caffeic acid phenethyl ester inhibits alpha-melanocyte stimulating hormone-induced melanin synthesis through suppressing transactivation activity of microphthalmia-associated transcription factor” (J Nat Prod, 2013).
Each block holds one compound with its values, some of them ahead of it. Active and inactive are the calls of the source. The rule behind the calls is not given here.

Experiments:
[1] = test system: B16-F10; assay: Antimelanogenic activity in mouse B16F10 cells assessed as inhibition of alpha-MSH-induced melanin production at 1 to 2 uM after 72 hrs by spectrophotometry; type: functional, cell-based
[2] = target: T1, Microphthalmia-associated transcription factor (Mus musculus) (UniProt Q08874); assay: Inhibition of MITF binding to M-box region of TRP-2 promoter in alpha-MSH-induced mouse B16F10 cells at 1 uM after 24 hrs by Chromatin immunoprecipitation assay; type: cell-based; details: B16-F10
T1 sequence (whole entry): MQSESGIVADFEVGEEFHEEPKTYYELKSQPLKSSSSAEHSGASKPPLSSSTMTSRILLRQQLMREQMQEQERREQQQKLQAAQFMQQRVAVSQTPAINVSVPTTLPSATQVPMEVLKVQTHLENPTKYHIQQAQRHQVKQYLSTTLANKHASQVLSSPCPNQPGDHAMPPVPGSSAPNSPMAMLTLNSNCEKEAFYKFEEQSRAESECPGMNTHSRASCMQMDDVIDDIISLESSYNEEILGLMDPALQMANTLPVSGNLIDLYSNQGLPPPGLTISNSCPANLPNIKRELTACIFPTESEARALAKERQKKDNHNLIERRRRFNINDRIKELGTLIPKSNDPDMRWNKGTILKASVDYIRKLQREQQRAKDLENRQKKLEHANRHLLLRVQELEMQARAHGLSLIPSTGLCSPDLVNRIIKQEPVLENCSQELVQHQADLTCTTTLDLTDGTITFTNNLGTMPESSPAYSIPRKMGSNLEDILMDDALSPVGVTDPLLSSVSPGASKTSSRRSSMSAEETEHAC

[3] = target: T1, Microphthalmia-associated transcription factor (Mus musculus); assay: Inhibition of MITF binding to M-box region of TRP-1 promoter in alpha-MSH-induced mouse B16F10 cells at 1 uM after 24 hrs by Chromatin immunoprecipitation assay; type: cell-based; details: B16-F10
[4] = target: T1, Microphthalmia-associated transcription factor (Mus musculus); assay: Inhibition of MITF binding to M-box region of tyrosinase promoter in alpha-MSH-induced mouse B16F10 cells at 1 uM after 24 hrs by Chromatin immunoprecipitation assay; type: cell-based; details: B16-F10
[5] = target: T1, Microphthalmia-associated transcription factor (Mus musculus); assay: Inhibition of MITF in mouse B16F10 cells assessed as inhibition of alpha-MSH-induced tyrosinase promoter activity after 24 hrs by luciferase reporter gene assay; type: cell-based; details: B16-F10
[6] = target: Glycogen synthase kinase-3 beta (Mus musculus) (UniProt Q9WV60); assay: Inhibition of GSK-3beta phosphorylation in alpha-MSH-induced mouse B16F10 cells at 1 uM after 30 mins to 2 hrs by Western blotting analysis; type: cell-based; details: B16-F10
Sequence of Glycogen synthase kinase-3 beta (Mus musculus) (Q9WV60 whole entry, looked up): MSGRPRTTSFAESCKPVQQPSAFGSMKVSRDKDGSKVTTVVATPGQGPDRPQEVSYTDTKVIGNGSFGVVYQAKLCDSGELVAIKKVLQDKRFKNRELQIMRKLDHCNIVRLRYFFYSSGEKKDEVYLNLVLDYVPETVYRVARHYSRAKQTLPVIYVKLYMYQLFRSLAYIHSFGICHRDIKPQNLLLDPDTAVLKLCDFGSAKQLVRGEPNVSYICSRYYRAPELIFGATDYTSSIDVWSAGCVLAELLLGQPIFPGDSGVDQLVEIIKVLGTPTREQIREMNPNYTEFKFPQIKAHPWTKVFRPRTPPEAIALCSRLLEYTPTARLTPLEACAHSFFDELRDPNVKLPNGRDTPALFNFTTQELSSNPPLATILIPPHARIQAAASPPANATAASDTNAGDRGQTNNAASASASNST

[7] = target: RAC-alpha serine/threonine-protein kinase (Mus musculus) (UniProt P31750); assay: Inhibition of Akt phosphorylation in alpha-MSH-induced mouse B16F10 cells at 1 uM after 30 mins to 2 hrs by Western blotting analysis; type: cell-based; details: B16-F10
Sequence of RAC-alpha serine/threonine-protein kinase (Mus musculus) (P31750 whole entry): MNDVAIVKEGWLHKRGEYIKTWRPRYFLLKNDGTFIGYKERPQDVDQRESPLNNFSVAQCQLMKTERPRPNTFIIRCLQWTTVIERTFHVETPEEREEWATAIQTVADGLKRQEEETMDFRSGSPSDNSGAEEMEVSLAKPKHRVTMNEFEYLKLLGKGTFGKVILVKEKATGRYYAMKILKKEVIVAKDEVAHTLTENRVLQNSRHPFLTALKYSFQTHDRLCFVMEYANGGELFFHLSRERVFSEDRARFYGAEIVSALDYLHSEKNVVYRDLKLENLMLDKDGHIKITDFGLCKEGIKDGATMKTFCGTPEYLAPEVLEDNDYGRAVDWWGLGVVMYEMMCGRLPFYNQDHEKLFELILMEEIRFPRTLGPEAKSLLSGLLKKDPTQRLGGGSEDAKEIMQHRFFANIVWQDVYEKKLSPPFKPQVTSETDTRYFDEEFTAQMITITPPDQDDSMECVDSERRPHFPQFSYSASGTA

[8] = test system: B16-F10; assay: Inhibition of CREB phosphorylation in alpha-MSH-induced mouse B16F10 cells at 1 uM after 30 mins to 2 hrs by Western blotting analysis; type: cell-based
[9] = test system: B16-F10; assay: Antimelanogenic activity in mouse B16F10 cells assessed as inhibition of alpha-MSH-induced MITF nuclear translocation at 1 uM after 30 mins to 2 hrs by Western blotting analysis; type: functional, cell-based
[10] = test system: B16-F10; assay: Antimelanogenic activity in mouse B16F10 cells assessed as inhibition of alpha-MSH-induced MITF protein expression at 1 uM after 30 mins to 2 hrs by Western blotting analysis; type: functional, cell-based
[11] = target: T1, Microphthalmia-associated transcription factor (Mus musculus); assay: Inhibition of MITF in mouse B16F10 cells assessed as inhibition of alpha-MSH-induced TRP2 protein expression after 48 hrs by Western blotting analysis; type: cell-based; details: B16-F10
[12] = target: T1, Microphthalmia-associated transcription factor (Mus musculus); assay: Inhibition of MITF in mouse B16F10 cells assessed as inhibition of alpha-MSH-induced TRP1 protein expression after 48 hrs by Western blotting analysis; type: cell-based; details: B16-F10
[13] = target: T1, Microphthalmia-associated transcription factor (Mus musculus); assay: Inhibition of MITF in mouse B16F10 cells assessed as inhibition of alpha-MSH-induced tyrosinase protein expression after 48 hrs by Western blotting analysis; type: cell-based; details: B16-F10
[14] = target: T1, Microphthalmia-associated transcription factor (Mus musculus); assay: Inhibition of MITF in mouse B16F10 cells assessed as inhibition of alpha-MSH-induced TRP2 mRNA expression after 48 hrs by RT-PCR analysis; type: cell-based; details: B16-F10
[15] = target: T1, Microphthalmia-associated transcription factor (Mus musculus); assay: Inhibition of MITF in mouse B16F10 cells assessed as inhibition of alpha-MSH-induced TRP1 mRNA expression after 48 hrs by RT-PCR analysis; type: cell-based; details: B16-F10
[16] = test system: B16-F10; assay: Antimelanogenic activity in mouse B16F10 cells assessed as inhibition of alpha-MSH-induced MITF mRNA expression at 1 uM after 30 mins to 2 hrs by RT-PCR analysis; type: functional, cell-based
[17] = target: T1, Microphthalmia-associated transcription factor (Mus musculus); assay: Inhibition of MITF in mouse B16F10 cells assessed as inhibition of alpha-MSH-induced tyrosinase mRNA expression after 48 hrs by RT-PCR analysis; type: cell-based; details: B16-F10
[18] = target: T2, Tyrosinase (Mus musculus) (UniProt P11344); assay: Inhibition of tyrosinase in alpha-MSH-treated mouse B16F10 cells assessed as reduction in L-DOPA oxidase activity at 0.5 to 2 uM after 72 hrs; type: cell-based; details: B16-F10
T2 sequence (whole entry): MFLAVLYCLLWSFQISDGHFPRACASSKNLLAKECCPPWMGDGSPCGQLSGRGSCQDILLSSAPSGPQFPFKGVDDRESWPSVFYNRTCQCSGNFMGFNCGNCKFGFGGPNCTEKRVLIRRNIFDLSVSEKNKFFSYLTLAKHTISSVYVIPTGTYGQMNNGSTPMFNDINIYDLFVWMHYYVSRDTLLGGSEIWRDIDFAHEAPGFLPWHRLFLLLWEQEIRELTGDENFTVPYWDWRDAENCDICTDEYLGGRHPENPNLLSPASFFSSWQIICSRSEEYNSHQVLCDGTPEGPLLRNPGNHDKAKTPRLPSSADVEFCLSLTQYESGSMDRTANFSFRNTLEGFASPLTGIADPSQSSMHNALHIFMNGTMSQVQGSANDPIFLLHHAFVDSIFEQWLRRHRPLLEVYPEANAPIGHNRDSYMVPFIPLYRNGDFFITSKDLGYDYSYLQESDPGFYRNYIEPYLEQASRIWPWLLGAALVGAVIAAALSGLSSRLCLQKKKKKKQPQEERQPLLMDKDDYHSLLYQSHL

[19] = target: T2, Tyrosinase (Mus musculus); assay: Inhibition of tyrosinase in alpha-MSH-treated mouse B16F10 cells up to 100 uM after 72 hrs by L-DOPA oxidase assay; type: cell-based; details: B16-F10
[20] = test system: B16-F10; assay: Antimelanogenic activity in mouse B16F10 cells assessed as inhibition of alpha-MSH-induced secreted melanin production after 72 hrs by spectrophotometry; type: functional, cell-based
[21] = test system: B16-F10; assay: Antimelanogenic activity in mouse B16F10 cells assessed as inhibition of alpha-MSH-induced intracellular melanin production after 72 hrs by spectrophotometry; type: functional, cell-based
[22] = test system: B16-F10; assay: Cytotoxicity against mouse B16F10 cells up to 2 uM after 72 hrs by MTT assay; type: cell-based; details: b16-f10, 72 h

SMILES: O=C(/C=C/c1ccccc1)OCCc1ccccc1
inhibition [1]: inactive

SMILES: O=C(O)/C=C/c1ccc(O)c(O)c1
inhibition [1]: inactive

SMILES: OCCc1ccccc1
inhibition [1]: inactive

inhibition [2]: Active
inhibition [3]: Active
inhibition [4]: Active
inhibition [5]: Dose-dependent effect
inhibition [6]: inactive
inhibition [7]: inactive
inhibition [11]: Dose-dependent effect
inhibition [12]: Dose-dependent effect
inhibition [13]: Dose-dependent effect
inhibition [14]: Dose-dependent effect
inhibition [15]: Dose-dependent effect
inhibition [17]: Dose-dependent effect
inhibition [18]: Active
inhibition [19]: inactive
SMILES: O=C(/C=C/c1ccc(O)c(O)c1)OCCc1ccccc1 [CAFFEIC ACID PHENETHYL ESTER]
inhibition [8]: inactive
inhibition [9]: inactive
inhibition [10]: inactive
inhibition [16]: inactive
inhibition [20]: Dose-dependent effect
inhibition [21]: Dose-dependent effect
Activity [22]: Non-toxic
